Results reported in patent US7056908B2, “Pharmaceutical compositions and methods for preventing skin tumor formation and causing regression of existing tumors” (priority 1991, dated 2006).

Assays:
[1] = tested on: primary keratinocytes; test: Cornified envelope formation in primary keratinocytes; type: cell-based, mouse; details: additional experiment, 60 nM bryostatin
Experimental: Cornified Envelope Quantitation. Keratinocytes were analyzed for cornified envelope formation as described (Nagae, S. et al, “Effect of retinoic acid on cornified envelope formation: difference between spontaneous envelope formation in vivo or in vitro and expression of envelope competence,” J. Invest., Dermatol., 89: 51–58, 1987), with minor modifications. Floating cells were harvested by collecting culture medium from each 60 mm dish and combining with two washes using phosphate-buffered saline without Ca^2+ and Ms^+2 (PBS). Cells were pelleted for 5 minutes at 1000 rpm in a benchtop clinical centrifuge and resuspended in 100 μl of lysis buffer (2% sodium dodecyl sulfate (SDS) and 20 mM dithiothreitol in PBS). Attached cells were harvested in 250 μl lysis buffer, combined with the preparation of floating cells, and incubated at 95° for 10 minutes. The non-solubilized, intact cornified envelopes, characteristic of terminally differentiated keratinocytes, were counted using a hemocytometer (Nagae, S. et al, “Effect of retinoic acid on cornified envelope formation: difference between spontaneous envelope formation in vivo or in vitro and expression of envelope competence,” J. Invest. Dermatol., 89: 51–58, 1987).
Floating and attached cell populations were harvested and cornified envelopes isolated. Data are mean values for three separate dishes±standard error of the mean from one experiment.
7 day old primary keratinocytes were cultured with or without 60 nM bryostatin for 15 hours. […] Each data bar is the average value from duplicate dishes with the range indicated by error bars.

[2] = tested on: primary keratinocytes; type: cell-based, mouse; details: 60 nM bryostatin for 1 day
Experimental: EGF binding was assessed in 6-well tissue culture dishes plated at a cell density of 2.5×10^6 cells/well (Strickland, J. E. et al, “Interaction of epidermal growth factor with basal and differentiating epidermal cells of mice resistant and sensitive to carcinogenesis,” Carcinogenesis, 5: 735–740, 1984). […] A second set of cultures received, in addition, 1 μg/ml unlabelled EGF to assess non-specific binding of radioactive ligand. Following the incubation period, cultures were washed 4 times with ice-cold binding buffer, harvested in 1.5 ml lysis buffer (0.1 M tris (pH 7.4), 0.5% SDS, 1 mM EDTA), and radioactivity determined by scintillation counting.
Exposure of a variety of cultured cell types to TPA results in inhibition of EGF binding which is attributed to PKC-mediated phosphorylation of the EGF receptor (Diamond, L., “Tumor promoters and cell transformation,” In: D. Grunberger and S. P. Goff. (eds.), Mechanisms of Cellular Transformation by Carcinogenic Agents, pp. 73–133, New York: Pergamon Press. 1987).
Each point is the mean of trilpicate dishes±standard error of the mean.

CCC/C=C/C=C/C(=O)O[C@H]1/C(=C/C(=O)OC)C[C@H]2C[C@H]([C@@H](C)O)OC(=O)C[C@H](O)C[C@@H]3C[C@H](OC(C)=O)C(C)(C)[C@](O)(C[C@@H]4C/C(=C/C(=O)OC)C[C@H](/C=C/C(C)(C)[C@]1(O)O2)O4)O3 [bryostatin]
reduction of cornified envelope formation by bryostatin pre-treatment ([1]; TPA-treated cultures): 70% | reduction of cornified envelope formation by bryostatin pre-treatment ([1]; staurosporine-treated cultures): 70% | block by bryostatin pre-treatment of staurosporine-mediated inhibition of 125I-EGF binding ([2]; average over a 4 hour period): 50% | block by bryostatin pre-treatment of TPA-mediated inhibition of 125I-EGF binding ([2]; over a 4 hour period): completely blocked
